Assay results published in patent US20160184271A1, “Amino Acid Composition for Use in the Treatment of a PDD” (N.V. Nutricia, priority 2013, published 2016).

Target: mTOR (Homo sapiens, UniProt P42345)
Assay: in vitro effect of amino acids on mTOR
Assay type: biochemical
Conditions: for effect on mTOR (inhibitory or activating): in vitro

Row | effect on mTOR (inhibitory or activating) | concentration having a comparable inhibitory effect on mTor (1 mM rapamycin compared with 10 mM lysine) | SMILES
1 | mTOR activating effect | – | CC(C)[C@H](N)C(=O)O [valine]
2 | mTOR activating effect | – | CC(C)C[C@H](N)C(=O)O [leucine]
3 | mTOR activating effect | – | CC[C@H](C)[C@H](N)C(=O)O [isoleucine]

Continued, compound first:

Row | SMILES | effect on mTOR (inhibitory or activating) | concentration having a comparable inhibitory effect on mTor (1 mM rapamycin compared with 10 mM lysine)
4 | N[C@@H](Cc1ccccc1)C(=O)O [Phenylalanine, phenylalanine] | inhibitory effect of mTOR | –
5 | NCC(=O)O [glycine] | inhibitory effect of mTOR | –
6 | NCCCC[C@H](N)C(=O)O [lysine] | – | 10 mM
